Test [1] deals with invasion of colorectal cancer cells. Briefly: In vivo relative invation (invasion; EV and KITENIN controls, no method described). The following applies: relative to EV (=1); KIT = KITENIN.
A further test has as its system KAI1 promoter. Briefly: KAI1 promoter luciferase reporter assay in transfected Caco2 cells. In kind it is cell-based, human. The following applies: Homo sapiens, Caco-2, 16 h, read-out: Relative KAI promoter activity. The protocol:
Experiments were conducted to evaluate the metastasis-related promoter activity-increasing effects of the compounds according to the present invention. Specifically, the KAI1 promoter reporter vector was used. In this case, the pRL-TK vector, a vector expressing renilla luciferase, was used as an internal control indicating the transfection efficiency in each transfected well.
First, 24 hours before transfection, 2×10^6 human colon cancer cell line, Caco2) cells were cultured in 10 ml of DMEM containing 10% FBS and 1% penicillin/streptomycin on a 100-mm-diameter plate, and then transformed with 5 μg of a pRL-TK vector mixture containing a transfection reagent and the KAI1 promoter, and then cultured in a 5% CO2 incubator at 37° C. for 48 hours. Thereafter, the adherent cells were detached using trypsin and counted using a hemacytometer, and then 5×10^3 transfected Caco2 cells in 100 μl of DMEM containing 10% FBS and 1% penicillin/streptomycin were seeded into each well of a 96-well plate and cultured in a 5% CO2 incubator at 37° C. for 24 hours. Next, 1 μM of each of the 305 compounds prepared in Examples 1 to 305 was added to each well, and after 16 hours, 100 μl of a lysis buffer for analysis containing a luciferase substrate was added, and the cells were lysed with stirring for 20 minutes. After completion of lysis, the cells were measured for luciferase activity using a luciferase reporter assay system (Promega, USA). […] In addition, data were analyzed at a significance level of p<0.05 by one-way ANOVA (Tukey's HSD), and SPSS 17.0 (Chicago, USA) statistical program was used. In Table 14 to 20, PHA is the PHA-665752, and KIT is KITENIN.

The mark [2] stands for this setting: 1 μM compound, 16 hours, transfected Caco2 cells, luciferase activity relative to DMSO control (=1).

“And” between values parts separate entries of the source, which are not always exact repeats. Identical values can stand only once. Like-named read-outs stand apart in the source and are kept apart here.

As to `O=C(CNC(=O)c1ccc(Cl)cc1)c1ccccc1` [Example 1, 4-chloro-N-(2-oxo-2-phenylethyl)benzamide], the “In vivo relative invation” value in test [1] stood at 0.9672. Further, in the test with KAI1 promoter, the fold induction at 1 µM amounted to 1.7.

For the compound `CC(Oc1ccccc1)C(=O)NCC(=O)c1ccccc1` (centres unmarked) [Example 2, N-(2-oxo-2-phenylethyl)-2-phenoxypropanamide], the “In vivo relative invation” value in test [1] is 0.8651. Besides, the fold induction at 1 µM in the test on KAI1 promoter was 1.14. For `O=C(CNC(=O)c1ccccc1F)c1ccccc1` [Example 3, 2-fluoro-N-(2-oxo-2-phenylethyl)benzamide], in that order: 1 and 2.12. As to `O=C(CNC(=O)c1ccc(F)cc1)c1ccccc1` [Example 4, 4-fluoro-N-(2-oxo-2-phenylethyl)benzamide], the “In vivo relative invation” value in test [1] worked out at 1.084. Besides, in the test on KAI1 promoter, the fold induction at 1 µM was 1.88. For `O=C(CNC(=O)c1ccco1)c1ccccc1` [Example 5, N-(2-oxo-2-phenylethyl)furan-2-carboxamide] the same measures were 0.812 and 1.98. For `O=C(CNC(=O)c1ccccc1Cl)c1ccccc1` [Example 6, 2-chloro-N-(2-oxo-2-phenylethyl)benzamide] the same measures were 1.144 and 1.91.

Take `O=C(CNC(=O)c1cccc(Cl)c1)c1ccccc1` [Example 7, 3-chloro-N-(2-oxo-2-phenylethyl)benzamide]: the “In vivo relative invation” value in test [1] is listed as 1.091. Moreover, the fold induction at 1 µM in the test with KAI1 promoter (setting [2]) was found to be 1.2. For `C/C=C/C(=O)NCC(=O)c1ccccc1` [Example 8, (E)-N-(2-oxo-2-phenylethyl)but-2-enamide], in that order: 1.077 and 1.15. For `O=C(CCc1ccccc1)NCC(=O)c1ccccc1` [Example 9, N-(2-oxo-2-phenylethyl)-3-phenylpropanamide] the same measures were 0.8419 and 1.14. Take `C=CC(=O)NCC(=O)c1ccccc1` [Example 10, N-(2-oxo-2-phenylethyl) acrylamide]: the “In vivo relative invation” value in test [1] came out at 0.9099. In the test with KAI1 promoter (setting [2]), the fold induction at 1 µM was 1.08. For `Cc1ccccc1C(=O)NCC(=O)c1ccccc1` [Example 11, 2-methyl-N-(2-oxo-2-phenylethyl)benzamide], in that order: 1.036 and 1.82. For `COc1ccc(C(=O)NCC(=O)c2ccccc2)cc1` [Example 12, 4-methoxy-N-(2-oxo-2-phenylethyl)benzamide], in test [1], the “In vivo relative invation” value is listed as 1.357. The fold induction at 1 µM in the test on KAI1 promoter (setting [2]) was found to be 1.75.

Consider `Cc1cccc(C(=O)NCC(=O)c2ccccc2)c1` [Example 13, 3-methyl-N-(2-oxo-2-phenylethyl)benzamide], for which the “In vivo relative invation” value in test [1] was 0.8565. Besides, the fold induction at 1 µM with KAI1 promoter (setting [2]) is 1.73. For `CCC(=O)NCC(=O)c1ccccc1` [Example 14, N-(2-oxo-2-phenylethyl)propionamide], the “In vivo relative invation” value in test [1] was 0.9106. Moreover, in the test with KAI1 promoter (setting [2]), the fold induction at 1 µM is 1.02. For `O=C(CNC(=O)C1CCCCC1)c1ccccc1` [Example 15, N-(2-oxo-2-phenylethyl)cyclohexanecarboxamide], in that order: 1.17 and 1.74.

In the case of `O=C(CNC(=O)C1CC1)c1ccccc1` [Example 16, N-(2-oxo-2-phenylethyl)cyclopropanecarboxamide], the “In vivo relative invation” value in test [1] is 0.9645. The fold induction at 1 µM in the test with KAI1 promoter (setting [2]) was found to be 0.92. For `O=C(CNC(=O)C1CCC1)c1ccccc1` [Example 17, N-(2-oxo-2-phenylethyl)cyclobutanecarboxamide], in that order: 0.9288 and 0.98. As to `O=C(CNC(=O)c1cccs1)c1ccccc1` [Example 18, N-(2-oxo-2-phenylethyl)thiophene-2-carboxamide], the “In vivo relative invation” value in test [1] came to 1.1. Besides, the fold induction at 1 µM with KAI1 promoter (setting [2]) amounted to 2.18.

On to `CC(C)(C)CC(=O)NCC(=O)c1ccccc1` [Example 19, 3,3-dimethyl-N-(2-oxo-2-phenylethyl) butanamide], for which the “In vivo relative invation” value in test [1] turned out to be 1.201. In addition, the fold induction at 1 µM in the test on KAI1 promoter (setting [2]) was 0.98. For `CCCCC(=O)NCC(=O)c1ccccc1` [Example 20, N-(2-oxo-2-phenylethyl)pentanamide], in that order: 1.217 and 0.99. For `O=C(CNS(=O)(=O)c1cccc([N+](=O)[O-])c1)c1ccccc1` [Example 21, 3-nitro-N-(2-oxo-2-phenylethyl)benzenesulfonamide], in that order: 1.099 and 0.99. For `O=C(CNC(=O)c1ccc(F)cc1F)c1ccccc1` [Example 22, 2,4-difluoro-N-(2-oxo-2-phenylethyl)benzamide] the same measures were 1.163 and 1.56.

Take `COCC(=O)NCC(=O)c1ccccc1` [Example 23, 2-methoxy-N-(2-oxo-2-phenylethyl) acetamide]: the “In vivo relative invation” value in test [1] was found to be 1.104. Also, the fold induction at 1 µM in the test on KAI1 promoter (setting [2]) was determined as 1. Regarding `CC(C)(C)C(=O)NCC(=O)c1ccccc1` [Example 24, N-(2-oxo-2-phenylethyl)pivalamide], the “In vivo relative invation” value in test [1] amounted to 1.128. Also, the fold induction at 1 µM in the test with KAI1 promoter (setting [2]) came out at 0.84. As to `CS(=O)(=O)NCC(=O)c1ccccc1` [Example 25, N-(2-oxo-2-phenylethyl)methanesulfonamide], the “In vivo relative invation” value in test [1] was 1.215. Further, in the test on KAI1 promoter (setting [2]), the fold induction at 1 µM came out at 1.49. For `O=C(CNS(=O)(=O)c1ccc(F)cc1)c1ccccc1` [Example 26, 4-fluoro-N-(2-oxo-2-phenylethyl)benzenesulfonamide] the same measures were 1.063 and 1.26. For `Cc1ccc(S(=O)(=O)NCC(=O)c2ccccc2)cc1` [Example 27, 4-methyl-N-(2-oxo-2-phenylethyl)benzenesulfonamide] the same measures were 1.044 and 1.31. For `O=C(CNS(=O)(=O)Cc1ccccc1)c1ccccc1` [Example 28, N-(2-oxo-2-phenylethyl)-1-phenylmethanesulfonamide], in that order: 1.057 and 1.02. In the case of `O=C(CNC(=O)c1cc(C(F)(F)F)cc(C(F)(F)F)c1)c1ccccc1` [Example 29, N-(2-oxo-2-phenylethyl)-3,5-bis(trifluoromethyl)benzamide], the “In vivo relative invation” value in test [1] is reported as 1.026. The fold induction at 1 µM in the test with KAI1 promoter (setting [2]) came out at 0.9.

As to `O=C(CNC(=O)c1ccccc1C(F)(F)F)c1ccccc1` [Example 30, N-(2-oxo-2-phenylethyl)-2-(trifluoromethyl)benzamide], the “In vivo relative invation” value in test [1] came out at 0.7631. For the same compound, in the test with KAI1 promoter (setting [2]), the fold induction at 1 µM is 1.41. With `Cc1[nH]c(/C=C2\C(=O)Nc3ccc(S(=O)(=O)Cc4c(Cl)cccc4Cl)cc32)c(C)c1C(=O)N1CCC[C@@H]1CN1CCCC1` [PHA, PHA-665752, reference compound], the fold induction at 1 µM in the test on KAI1 promoter (setting [2]) amounted to 1.43. For KITENIN, the “In vivo relative invation” value in test [1] was 1.419 and 1.156 and 1.58 and 1.288 and 1.205 and 1.369.

The values above are taken from patent US20230150924A1, “NOVEL COMPOUND HAVING CANCER METASTASIS INHIBITORY ACTIVITY, PREPARATION METHOD THEREFOR, AND PHARMACEUTICAL COMPOSITION FOR INHIBITING CANCER METASTASIS AND INVASION OR TREATING COLORECTAL CANCER, COMPRISING COMPOUND” (CELLGENTEK CO., LTD., priority 2019, published 2023).
